Measured values taken from US20040038369A1, “Airway-specific trypsin-like enzymes and method of using the same” (priority 2000, published 2004).

Legend:
[1] = system: EGF on surface of H292 cell membrane; assay: Surface antigen analysis (FACS) of EGF on NCI-H292 cell membrane; format: cell-based, human
Protocol: (§1) NCI-H292 cells (purchased from ATCC) were cultured on a 10 cm dish in 10% FCS-containing RPMI-1640 until to reach a confluent state, subjected to the replacement of the culture medium by RPMI-1640 containing 0.1% of BSA, and further cultured for 24 hours. The cultured cells were washed with PBS, treated and floated in PBS containing 5 mM of EDTA at 37° C. for five minutes, and then suspended in 0.1%BSA-containing RPMI-1640 in a density of 1.0×10^7 cells/mL.
(§2) The above-described cell suspension and 0.1% BSA-containing RPMI-1640 containing HAST in a double concentration (600 mU/mL) were mixed with each other in equivalent amounts, respectively, and reacted with each other at 37° C. for 30 minutes (final cell concentration: 5.0×10^6 cells/mL, final HAST concentration: 300 mU/mL). The reaction solution was mixed with ice-cooled 1% FCS-containing PBS in a volume of 5 times that of the reaction solution to stop the reaction, and the treated solution was then supplied for a surface antigen analysis.
(§3) The cells subjected to the prescribed treatments were suspended in 1% FCS-containing PBS in a density of 1.0×10^7 cells/mL. 100 μL of the prepared cell suspension was mixed with a primary antigen (EGF back ground dyeing: 1 μg of normal mouse IgG1 (produced by R & D Corp.), EGF dyeing: 1 μg of an anti-EGF mouse monoclonal antibody (produced by R & D Corp.), HB-EGF back ground dyeing: free from the primary antigen, HB-EGF dyeing: 2 μg of an anti-HB-EGF goat polyclonal antibody (produced by R & D Corp.)) and reacted on ice for 30 minutes. The reaction product was once washed with 5 mL of 1% FCS-containing PBS, mixed with 2 μg of a secondary antigen (EGF back ground dyeing and EGF dyeing: FITC conjugated F(ab′)2 fragment to mouse IgG (produced by Dako Corp.), HB-EGF back ground dyeing and HB-EGF dyeing: Swine Anti-Goat Ig's Fluorescein Conjugate (produced by KPL Corp.)), and then reacted on ice for 30 minutes. The reaction solution was once washed with 5 mL of 1% FCS-containing PBS, and then mixed with Cell Fix (produced by Becton Dickinson Corp.) to immobilize the cells. The expression of the surface antigen was assayed with FACS Calibur (produced by Becton Dickinson Corp.) and analyzed with Cell Quest (produced by Becton Dickinson Corp.). Average fluorescence intensities were shown in the next table as the indicators of expression intensities.
(§4) HAST (600 mU/mL) was reacted with leupeptin (10 μM) or BB1101 (5 μM) in 0.1% BSA-containing RPMI-1640 on ice for 30 minutes, and the reaction solution was mixed with the equivalent amount of a cell suspension preliminarily treated with leupeptin (10 μM) or BB1101 (5 μM) at 37° C. for 30 minutes, and further treated at 37° C. for 30 minutes (final HAST concentration: 300 mU/mL, final leupeptin concentration: 10 μM, final BB1101 concentration: 5 μM, final cell concentration: 5.0×10^6 cells/mL). The reaction solution was mixed with ice-cooled 1% FCS-containing PBS in an amount of five times that of the reaction solution to stop the reaction, and then supplied for the surface antigen analysis.
(§5) The cells subjected to the prescribed treatments were suspended in 1% FCS-containing PBS in a density of 1.0×10^7 cells/mL. […]

[2] = system: HB-EGF on surface of H292 cell membrane; assay: Surface antigen analysis (FACS) of HB-EGF on NCI-H292 cell membrane; format: cell-based, human
Protocol: as §1, §2, §3, §4, §5

Substance: HAST: human airway-specific trypsin-like enzyme; propeptide moiety bound to trypsin-like protein moiety via a disulfide bond
- cleavage of proEGF on the surfaces of the cell membranes ([1]; HAST 300 mU/mL): cleaved
- EGF expression intensity on the surfaces of the cell membranes (average fluorescence intensity) ([1]; HAST 300 mU/mL, 37° C., 30 minutes, Back ground 4.62, PBS 7.26): 4.88
- EGF expression intensity on the surfaces of the cell membranes (average fluorescence intensity) ([1]; inhibitor experiment, HAST 300 mU/mL alone, Back ground 8.44, PBS 10.79): 8.33
- cleavage of proHB-EGF on the surfaces of the cell membranes ([2]; HAST 300 mU/mL): cleaved
- HB-EGF expression intensity on the surfaces of the cell membranes (average fluorescence intensity) ([2]; HAST 300 mU/mL, 37° C., 30 minutes, Back ground 4.5, PBS 8.72): 6.94
- HB-EGF expression intensity on the surfaces of the cell membranes (average fluorescence intensity) ([2]; inhibitor experiment, HAST 300 mU/mL alone, Back ground 5.58, PBS 8.61): 6.26
